Laboratory results reported in the supplement of paper PMC4862054.

Experiments:
HCC1599 [1] = details: 72 h
How it was run: (§1)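 Compound dissolved in 5 µl medium was placed in 384-well plates before 20 µl of breast cancer cell suspension was added, and the plates were incubated for 72 h. Cells then received 2.5 µl CellTiter-Blue for 2 h at 37 °C, and fluorescence was read at 560/590 nm. EC50 values come from percent-inhibition dose-response fits that were censored at the highest concentration, with plates normalised to vehicle and a positive kill control and rows with a zero drug sensitivity score excluded.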

MFM-223 [2] = details: 72 h
How it was run: as §1

BT-474 = test: normalised viability (% of control), CellTiter-Blue; higher = more viable cells (about 100 = DMSO control); details: incubation time: 72 h
How it was run: (§2)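 Normalised viability is given for a single listed concentration of the series. In 384-well plates, breast cancer cell lines were incubated 72 h with compound, then read with CellTiter-Blue (2 h, 37 °C) at 560/590 nm. Per-plate scaling set vehicle to 100 and a positive kill control to 0, with Z'-factor quality control.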

BT-549 = test: as above; details: incubation time: 72 h
How it was run: as §2

CAL-120 = test: as above; details: incubation time: 72 h
How it was run: as §2

CAL-148 = test: as above; details: incubation time: 72 h
How it was run: as §2

CAL-51 = test: as above; details: incubation time: 72 h
How it was run: as §2

CAL-85-1 = test: as above; details: incubation time: 72 h
How it was run: as §2

DU-4475 = test: as above; details: incubation time: 72 h
How it was run: as §2

HCC1143 = test: as above; details: incubation time: 72 h
How it was run: as §2

HCC1599 [3] = test: as above; details: incubation time: 72 h
How it was run: as §2

HCC1937 = test: as above; details: incubation time: 72 h
How it was run: as §2

HDQ-P1 = test: as above; details: incubation time: 72 h
How it was run: as §2

Hs578T = test: as above; details: incubation time: 72 h
How it was run: as §2

MDA-MB-231 = test: as above; details: incubation time: 72 h
How it was run: as §2

MDA-MB-436 = test: as above; details: incubation time: 72 h
How it was run: as §2

MDA-MB-453 = test: as above; details: incubation time: 72 h
How it was run: as §2

MDA-MB-468 = test: as above; details: incubation time: 72 h
How it was run: as §2

MFM-223 [4] = test: as above; details: incubation time: 72 h
How it was run: as §2

SK-BR-3 = test: as above; details: incubation time: 72 h
How it was run: as §2

COc1cc(CCc2cc(NC(=O)c3ccc(N4CC(C)NC(C)C4)cc3)n[nH]2)cc(OC)c1 (stereo unspecified) [AZD4547]
Details | EC50, CellTiter-Blue viability [nM]
HCC1599 [1] | 270
MFM-223 [2] | 46.6

normalised viability [%]
Details | 0.3 nM | 1 nM | 3 nM | 10 nM | 100 nM | 1000 nM
BT-474 | – | 121 | – | – | 119 | 128
BT-549 | – | 89.1 | – | – | 105 | 112
CAL-51 | 120 | – | 107 | 99.8 | – | –
CAL-85-1 | 91 | – | 90 | 94.6 | – | –
CAL-120 | – | 86 | – | – | 80.4 | 65.1
CAL-148 | 97.9 | – | 93.7 | 89.7 | – | –
DU-4475 | 92.3 | – | 84 | 103 | – | –
HCC1143 | – | 94.3 | – | – | 87.9 | 93
HCC1599 [3] | – | 92.5 | – | – | 77.4 | 18.8
HCC1937 | – | 157 | – | – | 103 | 115
HDQ-P1 | 113 | – | 120 | 117 | – | –
Hs578T | – | 102 | – | – | 91.2 | 122
MDA-MB-231 | – | 110 | – | – | 105 | 113
MDA-MB-436 | – | 105 | – | – | 104 | 109
MDA-MB-453 | 119 | – | 91.5 | 95.8 | – | –
MDA-MB-468 | – | 113 | – | – | 105 | 105
MFM-223 [4] | – | 91 | – | – | 50.4 | 12.3
SK-BR-3 | – | 112 | – | – | 113 | 105

CCC/C=C/C=C/C(=O)O[C@H]1/C(=C/C(=O)OC)C[C@H]2C[C@H]([C@@H](C)O)OC(=O)C[C@H](O)C[C@@H]3C[C@H](OC(C)=O)C(C)(C)[C@](O)(C[C@@H]4C/C(=C/C(=O)OC)C[C@H](/C=C/C(C)(C)[C@]1(O)O2)O4)O3 [Bryostatin 1]
Details | EC50, CellTiter-Blue viability [nM]
HCC1599 [1] | > 100

Details | normalised viability [%]
BT-474, 10 nM | 109
BT-474, 1000 nM | 109
BT-474, 10000 nM | 102
BT-549, 0.1 nM | 100
BT-549, 10 nM | 87.9
BT-549, 100 nM | 100
CAL-51, 0.03 nM | 108
CAL-51, 0.3 nM | 104
CAL-51, 1 nM | 108
CAL-85-1, 0.03 nM | 95.3
CAL-85-1, 0.3 nM | 107
CAL-85-1, 1 nM | 117
CAL-120, 0.1 nM | 90.7
CAL-120, 10 nM | 89.1
CAL-120, 100 nM | 93.4
CAL-148, 0.03 nM | 91.6
CAL-148, 0.3 nM | 101
CAL-148, 1 nM | 88
DU-4475, 0.03 nM | 92.7
DU-4475, 0.3 nM | 79.2
DU-4475, 1 nM | 91.2
HCC1143, 0.1 nM | 85.3
HCC1143, 10 nM | 80.5
HCC1143, 100 nM | 80.5
HCC1599 [3], 0.1 nM | 112
HCC1599 [3], 10 nM | 116
HCC1599 [3], 100 nM | 115
HCC1937, 10 nM | 108
HCC1937, 1000 nM | 80.2
HCC1937, 10000 nM | 103
HDQ-P1, 0.03 nM | 104
HDQ-P1, 0.3 nM | 106
HDQ-P1, 1 nM | 107
Hs578T, 0.1 nM | 95.1
Hs578T, 10 nM | 97
Hs578T, 100 nM | 106
MDA-MB-231, 10 nM | 101
MDA-MB-231, 1000 nM | 82.8
MDA-MB-231, 10000 nM | 90.2
MDA-MB-436, 0.1 nM | 110
MDA-MB-436, 10 nM | 103
MDA-MB-436, 100 nM | 127
MDA-MB-453, 0.03 nM | 105
MDA-MB-453, 0.3 nM | 95
MDA-MB-453, 1 nM | 94.8
MDA-MB-468, 10 nM | 99.6
MDA-MB-468, 1000 nM | 104
MDA-MB-468, 10000 nM | 94.4
MFM-223 [4], 0.1 nM | 97
MFM-223 [4], 10 nM | 91.2
MFM-223 [4], 100 nM | 94.6
SK-BR-3, 10 nM | 95
SK-BR-3, 1000 nM | 67
SK-BR-3, 10000 nM | 61.4

O=S(=O)(c1cccc2cnccc12)N1CCCNCC1 [Fasudil]
Details | EC50, CellTiter-Blue viability [nM]
MFM-223 [2] | 1690

normalised viability [%]
Details | 3 nM | 10 nM | 30 nM | 100 nM | 1000 nM | 10000 nM
BT-474 | – | 112 | – | – | 112 | 126
BT-549 | – | 93.3 | – | – | 95.2 | 107
CAL-51 | 118 | – | 108 | 116 | – | –
CAL-85-1 | 96.6 | – | 90.4 | 93.3 | – | –
CAL-120 | – | 87.9 | – | – | 84.4 | 92
CAL-148 | 81 | – | 90.1 | 90.2 | – | –
DU-4475 | 100 | – | 109 | 101 | – | –
HCC1143 | – | 85.1 | – | – | 96.2 | 80.2
HCC1599 [3] | – | 99.9 | – | – | 102 | 117
HCC1937 | – | 122 | – | – | 105 | 90.6
HDQ-P1 | 111 | – | 99 | 117 | – | –
Hs578T | – | 98.4 | – | – | 114 | 116
MDA-MB-231 | – | 98.8 | – | – | 110 | 127
MDA-MB-436 | – | 83.5 | – | – | 108 | 107
MDA-MB-453 | 112 | – | 116 | 109 | – | –
MDA-MB-468 | – | 106 | – | – | 110 | 105
MFM-223 [4] | – | 102 | – | – | 89 | 77.7
SK-BR-3 | – | 94.7 | – | – | 95.7 | 109
